Values of other authors as cited in patent US20030091531A1, “Method and composition for insect and animal control” (priority 2001, published 2003).

Key:
[1] = classified by the EPA
[2] = unstabilised active; degrades rapidly under ultraviolet light, water, oxygen and soil microbes

CNC(=O)CSP(=S)(OC)OC [Dimethoate, dimethoate]
EPA carcinogen classification [1]: group 3 carcinogen

CCCCCCCCCC(C)=O [methyl nonyl ketone]
shelf life [2]: twelve
